Assay results: patent publication US8198215B2, “Methods for protecting seeds” (Sygenta Crop Protection LLC, priority 2005, dated 2012)

Legend:
Assay type in all cases: in vivo
Ustilago nuda [1] = experiment: Example B-5: comparison test with prior art compound B, activity against Ustilago nuda on barley; settings: 10 g active ingredient per 100 kg seed; for % Control / % infected heads: barley seed treatment; for % Control: relative to untreated; for % infected heads: untreated 13
Experimental: (§1) After application of the active ingredient formulated as a flowable concentrate for seed treatment onto U. nuda-infected seeds of winterbarley the seeds are sown in trays filled with field soil. The trays are transferred to a growth room and kept there for 2 days at 20° C. and then for 2 weeks at 2° C. After this period the trial is transferred to a greenhouse where a temperature of 15° C. and a 14 hr light period is provided until flowering. The following assessments are made: number of infected heads. Each number is determined for 200 seeds per treatment (2 replicates a 100 seeds). The activity against Ustilago nuda on barley of the racemic compound of formula Ia according to the invention was compared with racemic compound B, which is described as compound no. 2.69 on pages 7, table 2, and page 16, table 7, of WO 03/074491. The method used to compare the activity is described under example B-4 above.

Ustilago nuda [2] = experiment: Example B-6: comparison test with prior art compound C, activity against Ustilago nuda on barley; settings: 10 g active ingredient per 100 kg seed; for % Control / % infected heads: barley seed treatment; for % Control: relative to untreated; for % infected heads: untreated 13
Experimental: as §1, with “C (trans/cis-ratio: 10:1),” for “B,”, “2.40” for “2.69”, “pages 6 and” for “pages”, “2,” for “2, and page 16, table 7,”

Microdochium nivale = experiment: Example B-2: activity against Microdochium nivale on wheat, seed treatment; settings: M. nivale-infected winterwheat seeds, 10 g/100 kg seed
Experimental: After application of the active ingredient formulated as a flowable concentrate for seed treatment onto M. nivale-infected seeds of winterwheat the seeds are sown in trays filled with planting soil. The trial is kept for 4 weeks in a growth room at 4° C. and darkness. Then the temperature is increased to 15° C. and a 12 hr light period is provided. After development of the primary leaf plants are kept at 10° C. and high humidity until the trial is finished. The following assessments are made: number of infected plants. Each number is determined for 100 seeds per treatment (2 replicates a 50 seeds).

Ustilago nuda [3] = experiment: Example B-4: activity against Ustilago nuda on barley, seed treatment; settings: U. nuda-infected winterbarley seeds; for % Control: relative to untreated; for % infected heads: untreated 23.1
Experimental: After application of the active ingredient formulated as a flowable concentrate for seed treatment onto U. nuda-infected seeds of winterbarley the seeds are sown in trays filled with field soil. The trays are transferred to a growth room and kept there for 2 days at 20° C. and then for 2 weeks at 2° C. After this period the trial is transferred to a greenhouse where a temperature of 15° C. and a 14 hr light period is provided until flowering. The following assessments are made: number of infected heads. Each number is determined for 200 seeds per treatment (2 replicates a 100 seeds).

Gäumannomyces graminis = experiment: Example B-1: activity against Gäumannomyces graminis on wheat, seed treatment; settings: winterwheat seed treatment; for % root browning: inoculated field soil, 5 weeks at 17° C., untreated 50; for Control: relative to untreated
Experimental: After application of the active ingredient formulated as a flowable concentrate for seed treatment onto seeds of winterwheat the seeds are sown in trays filled with field soil. The field soil has been inoculated artificially before sowing with Gäumannomyces graminis by thoroughly mixing mycelium and soil. The trial is kept in a growth room for 5 weeks at 17° C. and a 14 hr light period. The following assessments are made: % root browning. Each number is determined for 30 seeds per treatment (3 replicates a 10 seeds).

Pyrenophora graminea = experiment: Example B-3: activity against Pyrenophora graminea on barley, seed treatment; settings: P. graminea-infected winterbarley seeds, 10 g/100 kg seed
Experimental: After application of the active ingredient formulated as a flowable concentrate for seed treatment onto P. graminea-infected seeds of winterbarley the seeds are sown in trays filled with field soil. The trays are kept in a growth room for 3 weeks at 4° C. After this period the trial is transferred to a greenhouse where a temperature of 12° C. and a 14 hr light period is provided. The following assessments are made: number of infected plants. Each number is determined for 200 seeds per treatment (2 replicates a 100 seeds).

SMILES	% Control (Ustilago nuda [1]) [%]	% infected heads (Ustilago nuda [1]) [%]	% Control (Ustilago nuda [2]) [%]	% infected heads (Ustilago nuda [2]) [%]	fungicidal action against Ustilago nuda on barley compared with racemic compound B (Ustilago nuda [1])	fungicidal action against Ustilago nuda on barley compared with racemic compound C (Ustilago nuda [2])	Control (Microdochium nivale; relative to untreated)	% infected plants (Microdochium nivale; untreated 38) [%]	% Control (Ustilago nuda [3]; 2.5 g/100 kg seed) [%]	% infected heads (Ustilago nuda [3]; 2.5 g/100 kg seed) [%]	% Control (Ustilago nuda [3]; 5 g/100 kg seed) [%]	% infected heads (Ustilago nuda [3]; 5 g/100 kg seed) [%]	% root browning (Gäumannomyces graminis; 10 g/100 kg seed) [%]	Control (Gäumannomyces graminis; 10 g/100 kg seed)	% root browning (Gäumannomyces graminis; 33 g/100 kg seed) [%]	Control (Gäumannomyces graminis; 33 g/100 kg seed)	Control (Pyrenophora graminea; relative to untreated)	% infected plants (Pyrenophora graminea; untreated 54) [%]
Cn1cc(C(=O)Nc2ccccc2[C@@H]2C[C@H]2c2ccc(Cl)cc2)c(C(F)F)n1 (racemic) [Racemic compound B, reference compound]	9	11.9	–	–	–	–	–	–	–	–	–	–	–	–	–	–	–	–
Cn1cc(C(=O)Nc2ccccc2C2CC2C2CCCC2)c(C(F)F)n1 (racemic) [Racemic compound C, reference compound]	–	–	11	11.6	–	–	–	–	–	–	–	–	–	–	–	–	–	–
Cn1cc(C(=O)Nc2ccccc2[C@@H]2C[C@H]2C2CC2)c(C(F)F)n1 (racemic) [Racemic compound of formula Ia]	100	0	100	0	substantially better fungicidal action	substantially better fungicidal action	86.8	5	100	0	100	0	28	44	20	60	98.1	1
